Literature values, collected in US20090274673A1, “COMPOSITION FOR TOPICAL TREATMENT OF ACNE” (priority 2008, published 2009).

Assays:
[1] = system: Saccharomyces cerevisiae; settings: against Saccharomyces cerevisiae
[2] = system: Candida albicans; settings: against Candida albicans (a yeast-like fungus)
[3] = system: protein synthesis; settings: prokaryotes versus eukaryotes
[4] = system: Proteus vulgaris; settings: agar plate diffusion
[5] = system: Staphylococcus aureus; settings: agar plate diffusion
[6] = system: hyper-permeable strains of Escherichia coli SC10909 and BAS847; settings: agar plate diffusion; hyper-permeable E. coli SC10909 and BAS847
[7] = system: Staphylococcus epidermidis; settings: against Staphylococcus epidermidis
[8] = system: Streptomyces avermitilis
[9] = system: Bacillus thuringiensis; settings: agar plate diffusion
[10] = system: species of Fusarium, Gerlacia, Penicillium, and Aspergillus
[11] = system: HIV; settings: virus incubated with zinc acetate

Compound: C/C(=C/C=C/C=C/C(C)C(=O)O)NC(=O)CC(O)\C(C)=C/C=C\C=C(C)\C=C\C=C/C=C/CNC(=O)C(O)CC(C)C (centres unmarked) [bacillaene]
- inhibitory effect [1]: ineffective
- inhibitory effect [2]: ineffective
- selectivity of protein synthesis inhibition [3]: inhibiting protein synthesis only in prokaryotes and not in eukaryotes
- inhibitory effect [4]: moderately potent
- inhibitory effect [5]: moderately potent
- inhibitory effect [6]: potent
- inhibitory effect [7]: ineffective
- growth inhibition [8]: inhibit the growth
- inhibitory effect [9]: moderately potent

Compound: Iturin A
- growth inhibition [10]: inhibits the growth

Compound: CC(=O)[O-].CC(=O)[O-].[Zn+2] [zinc acetate]
- HIV infectivity [11]: reduced
